As a reminder, the cell viability is a per cent measure of how many cells are alive, often set against a control.

The results in this text go back to patent publication US20230227477A1, “COMPOUNDS FOR SENSING REACTIVE OXYGEN SPECIES AND METHODS FOR USING THE SAME” (WAKE FOREST UNIVERSITY HEALTH SCIENCES, priority 2020, published 2023).

In data set [1] the test system is HeLa cells. Nature of the data set: Protective effects on HeLa cells under H2O2-induced oxidative stress (CCK-8 viability). Format: cell-based, human. The procedure:
Next, the protective effects of compound RAH393 on cultured HeLa cells which were under oxidative stress were examined. A population of cells (>6×10^6 cells/mL as determined with a hemocytometer) was diluted with FBS-free DMEM:F12-K, 1:1, 1% penicillin-streptomycin, and 1% L-glutamine to give a final concentration of 50,000 cells/mL. To a 96-well plate was added 100 μL of cell media solution resulting in a total of 5 k cells per well. Plates were then incubated at 37° C. in an atmosphere of 5% CO2 and 95% humidified air for 24 h. Confluent cells were then pre-incubated in FBS-free media with compound RAH393 (or compound 5) (200 μM) for 1 h followed by treatment with H2O2 (200 μM) for an additional 1 h incubation period. Control wells with H2O2 alone (200 μM) were also evaluated on the same plate. After a total incubation period of 2 h, cell contents were then replaced with 100 μL of fresh FBS-free media with 10% CCK-8. Cells were then incubated for 3 h at 37° C. and cell viability was assessed by measuring the resulting absorbance at 450 nm using a 96-well plate reader (BioTek SYNERGY-HTX multi-mode reader, Winooski, Vt.).

Data set [2] is described as follows: Turn-on fluorescence response of compounds 1a, 1b, 1c in PBS buffer alone and with H2O2. The conditions noted are these: for turn-on fluorescence response towards H2O2 (in words) / fluorescence (ex: 330 nm, em: 452 nm), in the presence of 1 mM H2O2 / fluorescence (ex: 330 nm, em: 452 nm), PBS Buffer alone: 20 μM probe; for turn-on fluorescence response towards H2O2 (in words): 1 mM H2O2 vs PBS alone, 3 h; for fluorescence (ex: 330 nm, em: 452 nm), in the presence of 1 mM H2O2 / fluorescence (ex: 330 nm, em: 452 nm), PBS Buffer alone: PBS pH 7.4, 37° C., 180 min; for fluorescence (ex: 330 nm, em: 452 nm), PBS Buffer alone: no H2O2. In kind it is physicochemical. As to the method: Stock solutions of each probe (compounds 1a, 1b, 1c) at 222.2 μM were prepared in 200-proof ethanol. In addition, a 100 mM hydrogen peroxide stock solution was prepared in freshly degassed 1× PBS buffer (pH 7.4) immediately prior to use. Each reaction vial was prepared using 21.6 mL of PBS buffer, 2160 μL of compound 1a (or compound 1b or 1c) stock solution, and 240 μL of 100 mM hydrogen peroxide stock solution to give final concentrations of 20 μM of compound 1a (or compound 1b or 1c) and 1 mM of hydrogen peroxide. A control sample was prepared using 2160 μL of compound 1a (or 1b or 1c) stock solution in ethanol and diluted with 21.84 mL of freshly degassed 1× PBS buffer to give a final concentration of 20 μM of compound 1a (or 1b or 1c). The reaction and control vials were heated to 37° C. and agitated with a stir bar. At 180 min, 4 mL aliquots were transferred from reaction and control vials to individual quartz cuvettes. Fluorescence measurements (ex: 330 nm, em: 452 nm) were recorded as the mean+/−STDEV from three experiments. Referring to FIG. 3, the results for each of compounds 1a, 1b, and 1c was as follows—(1a): (1) PBS Buffer alone: 3.85+/−0.58; (2) In the presence of 1 mM H2O2: 97.01+/−12.97. (1b): (1) PBS Buffer alone: 0.55+/−0.27; (2) In the presence of 1 mM H2O2: 8.14+/−3.13. (1c): (1) PBS Buffer alone: 102.35+/−0.73; (2) In the presence of 1 mM H2O2: 129.54+/−0.55.

Data set [3] is described as follows: Rate of coumarin release from compound 1a with H2O2 (fluorescence, plate reader). Format: physicochemical. The conditions noted are these: 20 μM compound 1a, 1000 μM H2O2, PBS pH 7.4, 37° C. As to the method: Referring to FIG. 2A, initially appending a coumarin ester to the H2O2-responsive scaffold of compound 1a, it was hypothesized that the release of payload, in response to H2O2, could be monitored via fluorescence spectroscopy while recording the resulting increase in fluorescence intensity upon excitation at 7-hydroxycoumarin's λmax. Therefore, to initially assess the reactivity of the scaffold towards peroxides, compound 1a (20 μM) and H2O2 (1000 μM) was incubated in PBS buffer (pH 7.4) at 37° C. Specifically, immediately prior to use, a 5 mM stock solution of hydrogen peroxide was prepared in freshly degassed 1× PBS buffer (pH 7.4) using reagent grade H2O2 (30% solution). A 200 μM stock solution of probe compound 1a was prepared in 200-proof ethanol. The rate of coumarin release was measured using concentrations of 20 μM compound 1a and 1000 μM H2O2 by adding 30 μL of the probe stock solution, 60 μL of hydrogen peroxide stock solution and 210 μL of PBS buffer (pH 7.4) to each well of a 96 well plate. The plate was inserted into a 96-well plate reader (BioTek SYNERGY-HTX hybrid multi-mode reader, Winooski, Vt.), heated to 37° C., and agitated to ensure homogeneity. The plate was read continuously using a 360/40 nm fluorescence filter and values were recorded as the mean+/−STDEV from three experiments.
To further establish the proposed mechanistic pathway, lactone compound 3 (see FIG. 2A) was isolated and characterized as a definitive byproduct of this transformation. […] Compound 3 was formed as described below.

Data set [4] concerns HeLa cells. In words: Cytotoxicity in HeLa cells (phosphatase assay). The conditions noted are these: various concentrations, 5 h incubation. Format: cell-based, human. As to the method: First, compound RAH393 and lactone compound 3 were tested for cytotoxicity in HeLa cells. A population of cells (>6×10^6 cells/mL as determined with a hemocytometer) was diluted with FBS-free DMEM:F12-K, 1:1, 1% penicillin-streptomycin, and 1% L-glutamine to give a final concentration of 50,000 cells/mL. To a 96-well plate was added 100 μL of cell media solution resulting in a total of 5 k cells per well. Plates were then incubated at 37° C. in an atmosphere of 5% CO2 and 95% humidified air for 24 h. Fresh culture media (100 μL) was then added to each well of cells resulting in 200 μL of media per well followed by the addition of compound RAH393 or compound 3 at various concentrations (20 mM stock in biological-grade DMSO, resulting in no more than 1% DMSO per well). After incubating for 5 h, a phosphatase assay was used to establish cell viability as follows: Media was removed from each well and replaced with 100 μL of phosphatase solution (100 mg of phosphatase substrate, in 30 mL of 0.1 M NaOAc, pH 5.5, 0.1% Triton X-100 buffer). Following an incubation period of 30 min, 50 μL of 0.10 M NaOH was added to each well and viability was assessed spectrophotometrically at 405 nm using a 96-well plate reader (BioTek SYNERGY-HTX multi-mode reader, Winooski, Vt.). Assays were performed in triplicate and presented as the mean+/−STDEV.

The nature of data set [5]: Persulfide release from compounds 4a and 4b with H2O2 monitored by fluorescence. The settings on record: 20 μM compound; for change of relative fluorescence intensity over time with H2O2 (in words): 200 μM H2O2, PBS pH 7.4, 37° C., 3 hours. In kind it is physicochemical. As to the method: Referring to FIGS. 6A and 6B, compounds 4a and 4b (20 μM) were exposed to H2O2 (200 μM) in PBS buffer (pH 7.4) at 37° C. and the resulting fluorescence intensity was monitored over a period of 3 hours. Immediately prior to use, a 200 μM stock solutions of compound 4a and compound 4b were prepared in cell-grade dimethylsulfoxide (DMSO), and a 200 μM stock of cetyltrimethylammonium bromide (CTAB) was prepared in PBS buffer (pH 7.4). Next, a 2 mM hydrogen peroxide stock solution was prepared by diluting 30% hydrogen peroxide in freshly degassed PBS Buffer (pH 7.4). 30 μL of compound 4a (or compound 4b) was then added to a 96 well plate and diluted with 90 μL of PBS buffer and 150 μL of the CTAB stock solution. The assay was then initiated by the addition of 30 μL, of the 2 mM hydrogen peroxide stock solution rendering a final concentration of 20 μM for compound 4a (or compound 4b), 200 μM of hydrogen peroxide, and 100 μM of CTAB. The control reactions without peroxide were conducted by adding 30 μL of the 200 μM stock of compound 4a to a 96 well plate and diluting with 120 μL of PBS buffer and 150 μL of 200 μM CTAB to make a final concentration of 20 μM of compound 4a and 100 μM of CTAB. The plate was inserted into a 96-well plate reader (BioTek SYNERGY-HTX multi-mode reader, Winooski, Vt.) heated to 37° C., and agitated to ensure homogeneity. The plate was read continuously using a 360/40 nm fluorescence filter and values were recorded as the mean+/−STDEV from three experiments.

Data set [6] can be described thus: DNFB trapping of released persulfide, LCMS (validation as ROS-activated persulfide donor). In kind it is physicochemical. The settings on record: 200 μM compound, 1 mM DNFB, 1 mM H2O2, ammonium bicarbonate buffer, room temperature. As to the method:
Initially, 5 mM stock solutions of compound RAH393, compound 5, and 2,4-dinitrofluorobenzene (DNFB) were prepared in 200-proof ethanol. In addition, a 100 mM stock solution of hydrogen peroxide in ammonium bicarbonate buffer (1 mM, pH 7.0) was prepared immediately prior to use. To a conical vial containing 1500 μL of 1M ammonium bicarbonate was then added 80 μL of the 5 mM stock of compound RAH393 (or control compound 5), 400 μL of the 5 mM DNFB stock, and 20 μL of 100 mM hydrogen peroxide giving a final concentrations of 200 μM compound RAH393 (or compound 5), 1 mM DNFB, and 1 mM H2O2. At the designated timepoints, a 100 μL aliquot of the room-temperature reaction was diluted with 900 μL of HPLC-grade methanol with 0.1% formic acid for analysis. 75 μL of the resultant solution was then injected onto C18 reverse phase column (Agilent Technologies, SB-C18 Analytical HPLC Col. 4.6×150) and eluted with HPLC-grade methanol (0.1% formic acid) and HPLC-grade water (0.1% formic acid) at a flow rate of 200 μL/min using the following gradient: 0-2 min, 90:10 water:methanol; 2-8 min, 40:60 water:methanol; 8-30 min, 10:90 water:methanol; 30-40 min, 5:95 water:methanol. Retention times of lactone compound 3 (25.0 min), compound RAH393 (35.6 min), compound 5 (27.7 min), and DNFB (16.5 min) were independently validated. When this assay was run using compound RAH393, in addition to compound 7 (21.7 min), the tri- and tetrasulfides of N-acetylcysteamine were also present (14.1 min and 16.2 min, respectively), further confirming persulfide release from compound RAH393.

Structures are written as SMILES.

Turning to `OO` [H2O2, hydrogen peroxide, reference compound], the cell viability with HeLa cells [1] (200 μM H2O2 alone, 1 hour) came out at 33%.
As for `CC(C)(Cc1ccccc1B1OC(C)(C)C(C)(C)O1)C(=O)Oc1ccc2ccc(=O)oc2c1` [compound 1a], in data set [2], the “turn-on fluorescence response towards H2O2 (in words)” value is given as “selective turn-on fluorescence response towards H2O2”; the “fluorescence (ex: 330 nm, em: 452 nm), in the presence of 1 mM H2O2” value (“fluorescence … of 1 mM H2O2” below) was 97.01+/−12.97; the “fluorescence (ex: 330 nm, em: 452 nm), PBS Buffer alone” value is 3.85+/−0.58. Moreover, the “time at which fluorescence intensity reached a maximum (complete release of coumarin reporter)” value in data set [3] is recorded as “roughly 1 h”. Besides, the kobs in data set [3] (pseudo first-order) is 0.024 min⁻¹. Also, the half-life at 20 μM in data set [3] (PBS buffer with 1000 μM H2O2, pseudo first-order, read-out: half-life (t1/2) of reaction with H2O2) was determined as 29.3 min.
Take `CC(C)(Cc1ccccc1)C(=O)Oc1ccc2ccc(=O)oc2c1` [compound 1b]: in data set [2], the “turn-on fluorescence response towards H2O2 (in words)” value was “no turn-on response”; the “fluorescence … of 1 mM H2O2” value is on record as 8.14+/−3.13; the “fluorescence (ex: 330 nm, em: 452 nm), PBS Buffer alone” value is 0.55+/−0.27.
For the molecule `CC1(C)OB(c2ccccc2CCC(=O)Oc2ccc3ccc(=O)oc3c2)OC1(C)C` [compound 1c], in data set [2], the “fluorescence … of 1 mM H2O2” value is listed as 129.54+/−0.55 and the “fluorescence (ex: 330 nm, em: 452 nm), PBS Buffer alone” value is listed as 102.35+/−0.73. For the same molecule, in data set [2] (PBS buffer alone, pH 7.4, 37° C.), the “susceptibility to hydrolysis (in words)” value is reported as “highly susceptible to hydrolysis”.
`CC1(C)Cc2ccccc2OC1=O` [compound 3]: the “cytotoxicity toward HeLa cells (in words)” value in the data set with HeLa cells [4] was “neither compound RAH393 nor lactone compound 3 were toxic”.
Turning to `CC(C)(Cc1ccccc1B1OC(C)(C)C(C)(C)O1)C(=O)SSc1ccccc1C(=O)Oc1ccc2ccc(=O)oc2c1` [compound 4a], the “kobs (pseudo first-order rate constant)” value in data set [5] (200 μM H2O2, 100 μM CTAB, PBS pH 7.4, 37° C.) worked out at 0.012 min⁻¹. Besides, the “change of relative fluorescence intensity over time with H2O2 (in words)” value in data set [5] is listed as “significantly increase over time”. The “fluorescence profile in PBS buffer alone (in words)” value in data set [5] (no H2O2, 100 μM CTAB, 37° C.) was “nearly identical fluorescence profile to that of compound 4b”. Also, in data set [5] (PBS buffer with 200 μM H2O2 and 100 μM CTAB, 200 μM H2O2, 100 μM CTAB, PBS pH 7.4, 37° C., pseudo first-order, read-out: half-life of reaction with H2O2 (persulfide release)), the half-life at 20 μM was determined as 60.5 min.
`CC(C)(Cc1ccccc1)C(=O)SSc1ccccc1C(=O)Oc1ccc2ccc(=O)oc2c1` [compound 4b]: in data set [5], the “change of relative fluorescence intensity over time with H2O2 (in words)” value is “trivial”.
As for `CC(=O)NCCSSC(=O)C(C)(C)Cc1ccccc1` [compound 5], the “formation of trapped disulfide compound 7 (persulfide release), LCMS” value in data set [6] was “unsuccessful in yielding compound 7”. Besides, in the data set with HeLa cells [1] (pre-treatment 200 μM compound 1 h, then 200 μM H2O2 1 h), the “protection against H2O2-induced oxidative stress (in words)” value is given as “no protection”.
